According to ChEMBL document CHEMBL1125335 (J Med Chem, 1992):

Tests used:
[1] = target: T1, Adenosine receptor A1 (Cavia porcellus) (UniProt P47745); experiment: Positive chronotropic effect on isolated guinea pig right atrium (heart stimulation).; format: functional, tissue-based; conditions: Cardiac atrium
T1 sequence (whole entry): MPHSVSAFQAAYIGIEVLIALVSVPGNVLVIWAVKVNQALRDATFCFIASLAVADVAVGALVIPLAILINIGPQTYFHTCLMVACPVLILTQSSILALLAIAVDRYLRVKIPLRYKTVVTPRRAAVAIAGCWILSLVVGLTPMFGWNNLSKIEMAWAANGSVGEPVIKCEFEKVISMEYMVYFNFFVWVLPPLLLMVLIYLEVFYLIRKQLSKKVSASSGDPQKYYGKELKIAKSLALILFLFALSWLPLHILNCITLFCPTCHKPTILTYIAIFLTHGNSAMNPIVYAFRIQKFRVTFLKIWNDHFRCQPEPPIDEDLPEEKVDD

[2] = target: Adenosine receptor A2a (Cavia porcellus, UniProt P46616); experiment: Affinity against adenosine A2 receptor in the brain membranes measured by the displacement of [3H]-CPX; format: cell membranes, Membrane
[3] = Ratio of stimulatory activity in right atrium to relaxant activity in tracheal muscle; format: functional, Cardiac atrium
[4] = target: T2, Adenosine receptor A1 (Cavia porcellus, UniProt P47745); experiment: Affinity against adenosine A1 receptor in the brain membranes by the displacement of [3H]CPX.; format: cell membranes, Membrane
T2 sequence (P47745 whole entry): T1 sequence (whole entry)

[5] = Inhibition of c-AMP phosphodiesterase activity in guinea pig tracheal muscle
[6] = test system: Cavia porcellus; experiment: In vivo reduction of acetylcholine-induced bronchospasm in guinea pigs by intraduodenal dose; format: functional
[7] = test system: Cavia porcellus; experiment: In vivo positive chronotropic effect on isolated guinea pig right atrium; format: functional, Cardiac atrium
[8] = Inhibitory activity against c-AMP phosphodiesterase in guinea pig tracheal muscle.
[9] = target: Adenosine A2 receptor (Homo sapiens, UniProt P29275+P29274); experiment: Affinity against adenosine A2 receptor in brain membranes by displacement of [3H]CPX; format: cell membranes, Cavia porcellus, Membrane

Adenosine receptor A2a, sequence (P46616 whole entry): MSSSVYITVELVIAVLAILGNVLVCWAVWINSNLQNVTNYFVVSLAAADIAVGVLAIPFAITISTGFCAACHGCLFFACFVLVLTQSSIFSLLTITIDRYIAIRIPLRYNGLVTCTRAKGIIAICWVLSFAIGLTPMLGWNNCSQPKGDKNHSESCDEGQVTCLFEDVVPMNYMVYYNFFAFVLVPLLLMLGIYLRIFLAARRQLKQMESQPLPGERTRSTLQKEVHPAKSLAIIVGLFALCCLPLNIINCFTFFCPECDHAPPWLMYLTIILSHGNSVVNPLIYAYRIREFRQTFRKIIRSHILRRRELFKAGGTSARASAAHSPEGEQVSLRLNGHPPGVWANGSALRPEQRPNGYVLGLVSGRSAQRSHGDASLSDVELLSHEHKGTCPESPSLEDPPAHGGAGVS

## CCCn1c(=O)n(CC)c(=O)c2[nH]cnc21
[1]
  EC15: 6.1 µM
[2]
  Ki: 3.9 µM
[3]
  Broncho selectivity: 4.7
[4]
  Ki: 1.4 µM
[5]
  Ki: 24.1 µM

## CCCCn1cnc2c1c(=O)[nH]c(=O)n2CCC
[1]
  EC15: > 100 µM
[3]
  Broncho selectivity: 7.1
[4]
  Ki: 12.1 µM
[5]
  Ki: 36.5 µM

## CCn1c(=O)[nH]c2nc[nH]c2c1=O
[2]
  Ki: 34 µM
[4]
  Ki: 9.8 µM

## CCCn1c(=O)[nH]c(=O)c2nc[nH]c21 [ENPROFYLLINE]
[1]
  EC15: 18.3 µM
[6]
  ED50: 25.7 mg/kg
[7]
  ED15: 95.1 mg kg-1 i.d.

## CCCCn1c(=O)c2nc[nH]c2n(C)c1=O
[1]
  EC15: 90.5 µM
[4]
  Ki: 4.3 µM

## Cn1c(=O)c2nc[nH]c2n(C)c1=O.O [THEOPHYLLINE]
[6]
  ED50: 23.4 mg/kg
[7]
  ED15: 20.2 mg kg-1 i.d.

## CCCn1c(=O)c2[nH]cnc2n(C)c1=O
[4]
  Ki: 3.4 µM

## CCCn1cnc2c1c(=O)n(C)c(=O)n2CCC
[1]
  EC15: 45.2 µM
[2]
  Ki: 43.8 µM
[3]
  Broncho selectivity: 9
[4]
  Ki: 9.4 µM
[5]
  Ki: 30.8 µM

## Cn1c(=O)c2[nH]cnc2n(C)c1=O
[1]
  EC15: 62 µM

## CCCn1c(=O)n(C)c(=O)c2[nH]cnc21
[1]
  EC15: 3.3 µM
[2]
  Ki: 8 µM
[3]
  Broncho selectivity: 2.1
[4]
  Ki: 1.9 µM
[5]
  Ki: 10.6 µM

## O=c1[nH]c(=O)c2nc[nH]c2[nH]1
[1]
  EC15: > 100 µM

## CCCn1c(=O)n(C)c(=O)c2c1ncn2C
[1]
  EC15: 45.4 µM
[2]
  Ki: 20.1 µM
[4]
  Ki: 14.5 µM

## CCCCn1c(=O)[nH]c2[nH]cnc2c1=O
[1]
  EC15: > 100 µM

## CCCCn1c(=O)c2c(ncn2C)n(CCC)c1=O
[8]
  Ki: 30.1 µM
[1]
  EC15: > 100 µM
[3]
  Broncho selectivity: 71.4
[6]
  ED50: 2.34 mg/kg
[4]
  Ki: 6 µM
[7]
  ED15: >100 mg kg-1 i.d.

## CCCn1c(=O)[nH]c2[nH]cnc2c1=O
[1]
  EC15: > 100 µM

## CCCn1c(=O)[nH]c(=O)c2c1ncn2C
[1]
  EC15: > 100 µM
[4]
  Ki: 90.6 µM

## CCn1c(=O)c2nc[nH]c2n(C)c1=O
[1]
  EC15: 34 µM
[4]
  Ki: 9.8 µM

## CCCn1c(=O)n(C)c(=O)c2c1ncn2CC
[1]
  EC15: > 100 µM
[4]
  Ki: 14.2 µM

## CCCn1c(=O)[nH]c(=O)c2c1ncn2CC
[8]
  Ki: 13.2 µM
[1]
  EC15: > 100 µM
[3]
  Broncho selectivity: 12
[4]
  Ki: 40.4 µM

## CCCCn1c(=O)n(C)c(=O)c2[nH]cnc21
[8]
  Ki: 10.2 µM
[1]
  EC15: 2.2 µM
[2]
  Ki: 4.8 µM
[3]
  Broncho selectivity: 1.7
[4]
  Ki: 1.9 µM

## CCCCn1c(=O)c2[nH]cnc2n(CCC)c1=O
[2]
  Ki: 4.1 µM
[4]
  Ki: 0.02 µM

## CCCCn1c(=O)c2nc[nH]c2n(CCC)c1=O
[1]
  EC15: 29 µM
[6]
  ED50: 2.87 mg/kg
[7]
  ED15: >100 mg kg-1 i.d.

## CCCn1c(=O)n(CC)c(=O)c2c1ncn2C
[8]
  Ki: 19.4 µM
[1]
  EC15: 30 µM
[3]
  Broncho selectivity: 4
[4]
  Ki: 11.8 µM

## CCCn1cnc2c1c(=O)[nH]c(=O)n2CCC
[1]
  EC15: > 100 µM
[3]
  Broncho selectivity: >6.3
[4]
  Ki: 18.2 µM
[5]
  Ki: 35 µM

## CCCCn1c(=O)[nH]c(=O)c2[nH]cnc21
[1]
  EC15: 17 µM
[3]
  Broncho selectivity: 2.1
[4]
  Ki: 21.4 µM
[5]
  Ki: 32 µM

## CCCn1c(=O)[nH]c2nc[nH]c2c1=O
[2]
  Ki: 23.4 µM
[4]
  Ki: 3.3 µM

## CCn1c(=O)[nH]c(=O)c2[nH]cnc21
[1]
  EC15: > 100 µM
[4]
  Ki: 117 µM

## CCCn1c(=O)c2c(ncn2C)n(CCC)c1=O
[1]
  EC15: 45.8 µM
[4]
  Ki: 7.7 µM

## O=c1[nH]c(=O)c2[nH]cnc2[nH]1 [XANTHINE]
[4]
  Ki: > 200 µM

## CCn1c(=O)n(C)c(=O)c2[nH]cnc21
[1]
  EC15: 28.5 µM
[2]
  Ki: 25.4 µM
[4]
  Ki: 7.6 µM

## Cn1c(=O)[nH]c(=O)c2[nH]cnc21 [3-METHYLXANTHINE]
[1]
  EC15: > 100 µM
[9]
  Ki: 133 µM

## CCCn1c(=O)c2nc[nH]c2n(C)c1=O
[1]
  EC15: 36.2 µM
[3]
  Broncho selectivity: 3.7
[5]
  Ki: 26 µM

## Cn1c(=O)[nH]c2[nH]cnc2c1=O [1-METHYLXANTHINE]
[1]
  EC15: > 100 µM
[3]
  Broncho selectivity: 1.3
[5]
  Ki: 163 µM

## Cn1c(=O)[nH]c2nc[nH]c2c1=O [1-METHYLXANTHINE]
[2]
  Ki: 67.1 µM
[4]
  Ki: 11.5 µM

## CCCCn1c(=O)[nH]c2nc[nH]c2c1=O
[2]
  Ki: 15.4 µM
[4]
  Ki: 3 µM

## CCn1c(=O)[nH]c2[nH]cnc2c1=O
[1]
  EC15: > 100 µM

## CCCn1c(=O)c2nc[nH]c2n(CCC)c1=O
[1]
  EC15: 20 µM
[4]
  Ki: 0.2 µM

## CCCCn1cnc2c1c(=O)n(C)c(=O)n2CCC
[1]
  EC15: > 100 µM
[2]
  Ki: 15.3 µM
[3]
  Broncho selectivity: 32.3
[4]
  Ki: 7.3 µM
[5]
  Ki: > 200 µM
